Test [1] has as its system SMN protein in SMA patient fibroblast cells (GM03813). The test can be described thus: SMN protein assay in cultured cells (SMN HTRF). The class given is cell-based. The settings on record: Homo sapiens, SMA Type 1 patient fibroblasts, 48 hours; for EC (1.5-fold): 7-point concentration curve, 1.5 times SMN protein vs vehicle, read-out: EC1.5x SMN protein (EC1.5x concentration for SMN protein expression); for maximal fold induction: fold increase relative to vehicle control, read-out: max. fold increase of SMN protein. The source says:
The term “EC1.5x concentration for SMN protein expression” (or “EC1.5x SMN protein”) is defined as that concentration of test compound that is effective in producing 1.5 times the amount of SMN protein in an SMA patient fibroblast cell compared to the amount produced from the vehicle control.
The SMN HTRF (homogeneous time resolved fluorescence) assay is used to quantify the level of SMN protein in SMA patient fibroblast cells treated with test compounds. Materials used and respective sources are listed below in Table 4.
Cells are thawed and cultured in DMEM-10% FBS for 72 hours. Cells are trypsinized, counted and re-suspended to a concentration of 25,000 cells/mL in DMEM-10% FBS. The cell suspensions are plated at 5,000 cells per well in a 96 well microtiter plate and incubated for 3 to […]. Test compounds are serially diluted 3.16-fold in 100% DMSO to generate a 7-point concentration curve. 1 μL of test compound solution is transferred to cell-containing wells and cells are incubated for 48 hours in a cell culture incubator (37° C., 5% CO2, […]). Triplicate samples are set up for each test compound concentration. After 48 hours, the supernatant is removed from the wells and 25 μL of the RIPA lysis buffer, containing protease inhibitors, is added to the wells and incubated with shaking at room temperature for 1 hour. 25 μL of the diluent is added and then 35 μL of the resulting lysate is transferred to a 384-well plate, where each well contains 5 μL of the antibody solution (1:100 dilution of anti-SMN d2 and anti-SMN kryptate in SMN reconstitution buffer). The plate is centrifuged for 1 minute to bring the solution to the bottom of the wells, then incubated overnight at room temperature. Fluorescence for each well of the plate at 665 nm and 620 nm is measured on an EnVision multilabel plate reader (Perkin-Elmer).
The normalized fluorescence signal is calculated for each sample, Blank and vehicle control well by dividing the signal at 665 nm by the signal at 620 nm. Normalizing the signal accounts for possible fluorescence quenching due to the matrix effect of the lysate. The ΔF value (a measurement of SMN protein abundance as a percent value) for each sample well is calculated by subtracting the normalized average fluorescence for the Blank control wells from the normalized fluorescence for each sample well, then dividing this difference by the normalized average fluorescence for the Blank control wells and multiplying the resulting value by 100. The ΔF value for each sample well represents the SMN protein abundance from test compound-treated samples. The ΔF value for each sample well is divided by the ΔF value for the vehicle control wells to calculate the fold increase in SMN protein abundance relative to the vehicle control. Table 5 provides EC1.5x concentrations for SMN protein expression that was obtained from the 7-point concentration data generated according to the above procedure for particular compounds of the present invention.
Table 6 provides the maximum fold increase of SMN protein that was obtained from the 7-point concentration data generated according to the above procedure for particular compounds of the present invention

Test [2] relates to full length SMN2 minigene mRNA (HEK293H cells stably transfected with SMN2-A minigene). The test can be described thus: SMN2 minigene mRNA splicing RT-qPCR assay in cultured cells. The class given is cell-based. The settings on record: Homo sapiens, HEK293-H, 24 hours, 7-point concentration curve, 1.5-fold increase relative to vehicle, read-out: EC1.5x minigene (EC1.5x concentration for production of full length SMN2 minigene mRNA). The source says:
The term “EC1.5x concentration for production of full length SMN2 minigene mRNA” (or “EC1.5x minigene”) is defined as that concentration of test compound that 1 s effective m increasing the amount of full length SMN2 minigene mRNA to a level 1.5-fold greater relative to that in vehicle-treated cells.
The reverse transcription-quantitative PCR-based (RT-qPCR) assay is used to quantify the level of the full length SMN2 minigene (referred to herein by the term “FL SMN2mini”) mRNA containing SMN2 exon 7 in a HEK293H cell line stably transfected with said minigene and treated with a test compound. Materials used and respective sources are listed below in Table 1.
The SMN2-A minigene construct was prepared as described in International Patent Application WO2009/151546A1 page 145 paragraph [00400] to page 147 paragraph [00412](incl. FIG. 1 and FIG. 3 therein).
HEK293H cells stably transfected with the SMN2-A minigene construct (10,000 cells/well) are seeded in 200 μL of cell culture medium (DMEM plus 10% FBS, with 200 μg/mL hygromycin) in 96-well flat-bottom plates and the plate is immediately swirled to ensure proper dispersal of cells and the formation of an even monolayer of cells. Cells are allowed to attach for 6 hours. Test compounds are serially diluted 3.16-fold in 100% DMSO to generate a 7-point concentration curve. A solution of test compound (1 μL, 200× in DMSO) is added to each cell-containing well and the plate is incubated for 24 hours in a cell culture incubator (37° C., 5% CO2, 100% relative humidity). 2 replicates are prepared for each test compound concentration. The cells are then lysed in the Cells-To-Ct lysis buffer and the lysate is stored at −80° C.
Full length SMN2-A minigene and GAPDH mRNA are quantified using the primers and probes referenced in Table 2. Primer SMN Forward A (SEQ ID NO.1) hybridizes to a nucleotide sequence in exon 7 (nucleotide 22 to nucleotide 40), primer SMN Reverse A (SEQ ID NO.2) hybridizes to a nucleotide sequence in the coding sequence of Firefly luciferase, SMN Probe A (SEQ ID NO.3) hybridizes to a nucleotide sequence in exon 7 (nucleotide 50 to nucleotide 54) and exon 8 (nucleotide 1 to nucleotide 21). The combination of these three oligonucleotides detects only SMN1 or SMN2 minigenes (RT-qPCR) and will not detect endogenous SMN1 or SMN2 genes.
The SMN forward and reverse primers are used at final concentrations of 0.4 μM. The SMN probe is used at a final concentration of 0.15 μM. The GAPDH primers are used at final concentrations of 0.2 μM and the probe at 0.15 μM.
The SMN2-minigene GAPDH mix (15 μL total volume) is prepared by combining 7.5 μL of 2×RT-PCR buffer, 0.4 μL of 25×RT-PCR enzyme mix, 0.75 μL of 20×GAPDH primer-probe mix, 4.0075 μL of water, 2 μL of 10-fold diluted cell lysate, 0.06 μL of 100 µM SMN forward primer, 0.06 μL of 100 μM SMN reverse primer, and 0.225 μL of 100 μM SMN probe.
PCR is carried out at the following temperatures for the indicated time: Step 1: 48° C. (15 min); Step 2: 95° C. (10 min); Step 3: 95° C. (15 sec); Step 4: 60° C. (1 min); then repeat Steps 3 and 4 for a total of 40 cycles.
Each reaction mixture contains both SMN2-A minigene and GAPDH primers/probe sets (multiplex design), allowing simultaneous measurement of the levels of two transcripts.
The increase in the abundance of the FL SMN2mini mRNA relative to that in cells treated with vehicle control is determined from real-time PCR data using a modified ΔΔCt method (as described in Livak and Schmittgen, Methods, 2001, 25:402-8). The amplification efficiency E is calculated from the slope of the amplification curve for FL SMN2mini and GAPDH individually. The abundance of FL SMN2mini and GAPDH mRNA are then calculated as (1+E)^−Ct, where Ct is the threshold value for each amplicon. The abundance of FL SMN2mini mRNA is normalized to GAPDH mRNA abundance. […]

Consider 12 compounds from patent US11827646B2, “Compounds for treating spinal muscular atrophy” (Hoffmann-La Roche Inc., priority 2014, dated 2023).

As to `Cc1cn2nc(-c3cc(=O)n4cc(N5CCNC(C)(C)C5)ccc4n3)ccc2n1` [Example 23, 7-(3,3-dimethylpiperazin-1-yl)-2-(2-methylimidazo[1,2-b]pyridazin-6-yl)pyrido[1,2-a]pyrimidin-4-one], in test [1], the EC (1.5-fold) came to 0.0239 µM and the maximal fold induction worked out at 1.63. The EC (1.5-fold) in test [2] worked out at 0.0034 µM.
On the same counts, the results for `Cc1cn2nc(-c3cc(=O)n4cc(N5CCN[C@@H](C)C5)cc(C)c4n3)cc(C)c2n1` [Example 24, 2-(2,8-dimethylimidazo[1,2-b]pyridazin-6-yl)-9-methyl-7-[(3S)-3-methylpiperazin-1-yl]pyrido[1,2-a]pyrimidin-4-one] are 0.0047 µM, 1.77 and 0.0004 µM.
Consider `Cc1cn2nc(-c3cc(=O)n4cc(N5CCN[C@H](C)C5)cc(C)c4n3)cc(C)c2n1` [Example 25, 2-(2,8-dimethylimidazo[1,2-b]pyridazin-6-yl)-9-methyl-7-[(3R)-3-methylpiperazin-1-yl]pyrido[1,2-a]pyrimidin-4-one], for which, in test [1], the EC (1.5-fold) was determined as 0.0119 µM and the maximal fold induction is 1.79. The EC (1.5-fold) in test [2] was 0.0005 µM.
On the same counts, the results for `Cc1cn2nc(-c3cc(=O)n4cc(N5CCNC6(CC6)C5)cc(C)c4n3)cc(C)c2n1` [Example 28, 7-(4,7-diazaspiro[2.5]octan-7-yl)-2-(2,8-dimethylimidazo[1,2-b]pyridazin-6-yl)-9-methyl-pyrido[1,2-a]pyrimidin-4-one] are 0.0497 µM, 1.72 and 0.005 µM.
On to `Cc1cn2nc(-c3cc(=O)n4cc(N5C[C@H](C)N[C@@H](C)C5)ccc4n3)cc(C)c2n1` [Example 29, 2-(2,8-dimethylimidazo[1,2-b]pyridazin-6-yl)-7-[(3S,5S)-3,5-dimethylpiperazin-1-yl]pyrido[1,2-a]pyrimidin-4-one], for which the EC (1.5-fold) in test [1] was 0.0021 µM; in test [2], 0.0003 µM. In addition, in test [1], the maximal fold induction came to 1.81.
On the same counts, the results for `Cc1cn2nc(-c3cc(=O)n4cc(N5CC[C@H](N6CCCC6)C5)ccc4n3)cc(C)c2n1` [Example 30, 2-(2,8-dimethylimidazo[1,2-b]pyridazin-6-yl)-7-[(3S)-3-pyrrolidin-1-ylpyrrolidin-1-yl]pyrido[1,2-a]pyrimidin-4-one] are 0.0136 µM, 0.003 µM and 1.84.
On the same counts, the results for `Cc1cn2nc(-c3cc(=O)n4cc(N5CC[C@H](N6CCCC6)C5)ccc4n3)ccc2n1` [Example 31, 2-(2-methylimidazo[1,2-b]pyridazin-6-yl)-7-[(3S)-3-pyrrolidin-1-ylpyrrolidin-1-yl]pyrido[1,2-a]pyrimidin-4-one] are 0.0277 µM, 0.0067 µM and 1.65.
Regarding `Cc1cn2nc(-c3cc(=O)n4cc(N5C[C@H](C)N[C@@H](C)C5)ccc4n3)ccc2n1` [Example 32, 7-[(3S,5S)-3,5-dimethylpiperazin-1-yl]-2-(2-methylimidazo[1,2-b]pyridazin-6-yl)pyrido[1,2-a]pyrimidin-4-one], in test [1], the EC (1.5-fold) worked out at 0.004 µM and the maximal fold induction is 1.88. The EC (1.5-fold) in test [2] was determined as 0.0016 µM.
Consider `Cc1cn2nc(-c3cc(=O)n4cc(N5CCN[C@@H](C)C5)cc(C)c4n3)ccc2n1` [Example 33, 9-methyl-2-(2-methylimidazo[1,2-b]pyridazin-6-yl)-7-[(3S)-3-methylpiperazin-1-yl]pyrido[1,2-a]pyrimidin-4-one], for which, in test [1], the EC (1.5-fold) was determined as 0.004 µM and the maximal fold induction was 1.82. The EC (1.5-fold) in test [2] was determined as 0.0005 µM.
On to `Cc1cn2nc(-c3cc(=O)n4cc(N5CCN[C@H](C)C5)cc(C)c4n3)ccc2n1` [Example 34, 9-methyl-2-(2-methylimidazo[1,2-b]pyridazin-6-yl)-7-[(3R)-3-methylpiperazin-1-yl]pyrido[1,2-a]pyrimidin-4-one], for which, in test [1], the EC (1.5-fold) was 0.0044 µM and the maximal fold induction amounted to 1.89. For the same compound, the EC (1.5-fold) in test [2] was determined as 0.0009 µM.
On the same counts, the results for `Cc1cn2nc(-c3cc(=O)n4cc(N5C[C@@H](C)N[C@@H](C)C5)cc(C)c4n3)ccc2n1` [Example 35, 7-[(3R,5S)-3,5-dimethylpiperazin-1-yl]-9-methyl-2-(2-methylimidazo[1,2-b]pyridazin-6-yl)pyrido[1,2-a]pyrimidin-4-one] are 0.0195 µM, 1.79 and 0.0047 µM.
On the same counts, the results for `Cc1cn2nc(-c3cc(=O)n4cc(N5CCNC(C)(C)C5)cc(C)c4n3)ccc2n1` [Example 36, 7-(3,3-dimethylpiperazin-1-yl)-9-methyl-2-(2-methylimidazo[1,2-b]pyridazin-6-yl)pyrido[1,2-a]pyrimidin-4-one] are 0.0344 µM, 1.77 and 0.005 µM.
